Series [1] concerns EAC cells. In words: In vivo antitumor screening against EAC cells in mice. The note with it: 0.5 mg/mouse; for Hb / RBCs Count / WBCs Count: blood profile of mice inoculated with EAC cells; for Viable tumor cell count/100 μL / Tumor volume / Mean survival time / % Increase in lifespan: mice inoculated with EAC cells; for Viable tumor cell count/100 μL: after five days of treatment, trypan blue; for Tumor volume: ascitic fluid; for Mean survival time: treatment for nine days; for % Increase in lifespan: %ILS = [(MST treated/MST positive control)-1] x 100. As to the method: In vivo antitumor assessment of 5f, 5h, 5m and 5r was performed according to the literature method (Oberling and Guerin, 1954[48]; Sheeja et al., 1997[64]; Clarkson and Burchenal, 1965[9]).
Results of in vivo antitumor screening of compounds 5f, 5h, 5m and 5r (showing the highest in vitro antitumor activity) against EAC cells in mice are listed in Tables 2-4(Tab. 2)(Tab. 3)(Tab. 4). The % increase in lifespan of EAC inoculated mice (%ILS), the decrease in viable tumor cell count and the retrieval of normal blood profile are three substantial measures used for estimation of antitumor efficacy of the selected compounds and 5-fluorouracil (5-FU) (standard agent) (Oberling and Guerin, 1954[48]; Sheeja et al., 1997[64]; Clarkson and Burchenal, 1965[9]). The mean survival time (MST) of each group was rated and %ILS of mice inoculated with EAC cells was determined adopting the equation: %ILS = [(MST of treated group/ MST of positive control group)-1] x 100, where MST = days of the mouse in a group/total no. of mice. […] Also, this compound produced considerable decrease in viable tumor cell count (Table 3(Tab. 3)). […]
In vivo antitumor screening
Swiss male albino mice (wei ghing 20-25 g) were utilized. The y were dwelled in microlon boxes at temperature 25 ± 2 °C with a regular 12 hrs light/dark cycl e, in addition, food and water intake were permitted.
EAC cells were acquir ed from the NCI, Cairo, Egypt.
Mice were divided into 7 groups (n= 6).
Group 1: Negative contr ol (no EAC cells) - recei ved normal saline.
Group 2: Positive control (EAC cells) - receiv ed normal saline.
Group 3: EAC cells - received compound 5f (0.5 mg/mouse).
Group 4: EAC cells - received compound 5h (0.5 mg/mouse).
Group 5: EAC cells - received compound 5m (0.5 mg/mouse).
Group 6: EAC cells - received compound 5r (0.5 mg/mouse).
Group 7: EAC cells - received 5-fluorouracil (0.5 mg/mouse).
2 x 10^6 cells were inoc ulated intraperitoneall y t o each mouse in all groups ex cept the neg-ative control group. The tr eatment began 24 hrs after inoculation (0.5 mg/mouse) and con-tinued for nine days (Oberlin g and Gu erin, 19 54; Sheeja et al., 1997; Clarkson and Burch enal, […]
Determination of tumor volume
The ascetic fluid was gath ered from the peritoneal cavit y of dissected mice. It was th en centrifuged for 5 min and the tumor cell volume was set.
Determination of viable tumor cell count after five days of treatment
EAC cells (100 μ L, from three mice of each group) were obtained and diluted to twent y-fold with saline. The cells were st ained with tr ypan blue, t he dead cells are stained, whereas […]
The number of viable cells was counted. […]
Clarkson BD, Burchenal JH. Preliminary screening of antineoplastic drugs. Prog Clin Cancer. 1965;1:625-9. […]
(§1) Oberling C, Gu erin M. The role of viruses in the production of cancer . Ad v Cancer Res. 1954;2:353-423.
(§2) Sheeja KR, Kuttan G, Kuttan R. C ytotox ic and antitumour activit y of Berberin. Amala Res Bull. 1997;17:73-6.

Series [2] is described as follows: In vitro cytotoxicity testing, MTT assay, W138 normal cells. The format is cell-based. The note with it: W138 normal lung fibroblast cells, human normal lung fibroblast W138, read-out: IC50 W138 normal cell line. The method, then: In vitro cytotoxic activity of 5f, 5h, 5m and 5r was evaluated in accord to the reported method (Mosmann, 1983[46]; Denizot and Lang, 1986[13]; Gerlier and Thomasset, 1986[21]).
The effective antitumor compounds, 5f, 5h, 5m and 5r were further assessed for in vitro cytotoxicity toward human normal lung fibroblast (W138) cell line (Mosmann, 1983[46]; Denizot and Lang, 1986[13]; Gerlier and Thomasset, 1986[21]). IC50 values (µM) of the tested compounds and 5-FU (reference cytotoxic agent) were calculated. […]
(§3) In vitro antitumor screening
(§4) Compounds 5a-t were screened for in vitro antitumor activity against HepG2 (liver), HCT-116 (colon) and MCF-7 (breast) cancer cell lines adopting MTT assa y (Mosmann, 1983; Denizot and Lang, 1986; Gerlier and Thomasset, 1986) and usin g 5- fluorouracil as a reference antitumor agent. Cells were cultured in Roswell Park Memorial Institute (RPM I) 1640 medium wit h 10% fetal bovine serum, penicillin (100 units/mL) and streptomycin (100 µg/mL) at 37 ° C in an atmosphere of 5% CO 2 were added.
(§5) Cells were placed in 96-multiwell microtiter plates (10^4 cells/well), for 24 h rs at 37 °C and in an atmosphere of 5% CO2 before tr eatment with the compounds to allow attachment of the cells to the wall of the plate. The tested compounds were dissolved in DMSO and diluted with phosphate buffer saline (PBS) to obtain different concentrations. Tested compounds of dif-ferent concentrations were added to each well and cells were incubated with the compounds for 48 hrs at 37 °C and in an atmosphere of 5% CO2. All tests were performed in triplicates.
(§6) The treated cells were wash ed with PBS and 100 µL of 3 -(4,5-dimeth ylthiazol-2-yl )-2,5-diphe-n yltetrazolium bromide solution (MTT) (5 mg/m L MTT st ock in PBS diluted to 1 mg/ mL with 10% RPMI-1640 medium) was added. The 9 6 -multiwell plates were read b y microarra y read er Perkinelmer vector 3V multilabel counter model 1420 (Perkinelmer, Boston, MA) for optical densit y at 490 nm (Mosmann, 1983; Denizot and Lang, 1986; Gerlier and Thomasset, 1986).
(§7) The relative percenta ge cell viabilit y was calculate d from the following equation: […]
(§8) The relation between surviving fraction and drug concentration is plotted to get the survival curve for HepG2, HCT-116 and M CF-7 cancer cell lines . […]
In vitro cytotoxicity testing […]
J Immunol Methods. 1986;89:271-7.
(§9) Gerlier D, Thomasset T. Use of MTT colorimetric assa y to measure cell activation. J Immunol Methods. 1986; […]
(§10) Mosmann T. Rapid colorimetric assa y for cellular growth and survival: Application to proliferation and cytotox- […]
as §1, §2
(Formazan colour is commonly taken as a measure of viable cells.)

The test system of series [3] is cervical (Hela) cancer cell line. The experiment in a line: In vitro antitumor screening, MTT assay, Hela. The format is cell-based. The following applies: Homo sapiens, 50% inhibition of cell viability. The method, then:
(§11) The new analogs were tested for in vitro antitumor efficacy adopting the reported procedure (Mosmann, 1983[46]; Denizot and Lang, 1986[13]; Gerlier and Thomasset, 1986[21]).
(§12) In vitro antitumor screening of compounds 5a-t was carried out on cervical (Hela) and kidney fibroblast (COS-7) cancer cell lines in accord to MTT assay (Mosmann, 1983[46]; Denizot and Lang, 1986[13]; Gerlier and Thomasset, 1986[21]) and utilizing doxorubicin as a standard drug. The concentrations of the compounds that cause 50% inhibition of cell viability (IC50, µM) were calculated. […]
as §3, §4, §5, §6, §7, §8
(§13) Denizot F, Lang R. Rapid colorimetric assa y for cell growth and survival. Modifications to the tetrazolium dye procedure giving improved sensitivity an d reliability. J Immunol Methods. 1986;89:271-7.
as §9, §10, §1, §2

Series [4] relates to kidney fibroblast (COS-7) cancer cell line. The experiment in a line: In vitro antitumor screening, MTT assay, COS-7. The following applies: Chlorocebus aethiops, 50% inhibition of cell viability, COS-7 cell line. The format is cell-based. As to the method:
as §11, §12
In vitro antitumor screening […]
HCT-116 (colon) and MCF-7 (breast) cancer cell lines adopting MTT assa y (Mosmann, 1983; Denizot and Lang, 1986; Gerlier and Thomasset, 1986) and usin g 5- fluorouracil as a reference antitumor agent. Cells were cultured in Roswell Park Memorial Institute (RPM I) 1640 medium wit h 10% fetal bovine serum, penicillin (100 units/mL) and streptomycin (100 µg/mL) at 37 ° C in an atmosphere of 5% CO 2 were added.
as §5, §6, §7, §8, §13, §9, §10, §1, §2

Nine compounds from publication PMC5735336, “Microwave-assisted synthesis and antitumor evaluation of a new series of thiazolylcoumarin derivatives” (EXCLI Journal, 2017) can be followed below.

As usually defined, the IC50 is the midpoint of a concentration-inhibition curve. As a reminder, the melting point is the temperature of the solid-liquid transition.

`O=c1[nH]cc(F)c(=O)[nH]1` [5-Fluorouracil, 5-fluorouracil, reference compound]: in series [1], the Hb stood at 12.96 g/dL, the “RBCs Count” value is recorded as 5.21 10^6/mm^3, the “WBCs Count” value was 8.86 10^3/mm^3 and the “Viable tumor cell count/100 μL” value was 20.17x10^6 /100 μL. In series [1], the Tumor volume is recorded as 1.60 mL, the Mean survival time came to 49.0 days and the “% Increase in lifespan” value is reported as 237.9%. In addition, in series [2], the IC50 at 48 h was found to be 5.73 µM.
In the case of `O=c1oc2ccccc2cc1-c1csc(NN=Cc2c(Cl)cccc2Cl)n1` [5f, 3-(2-(2-(2,6-Dichlorobenzylidene)hydrazino)thiazol-4-yl)-2H-chromen-2-one], in series [1], the Hb is 12.92 g/dL, the “RBCs Count” value is reported as 5.14 10^6/mm^3, the “WBCs Count” value is recorded as 8.41 10^3/mm^3 and the “Viable tumor cell count/100 μL” value was 25.83x10^6 /100 μL. In addition, in series [1], the Tumor volume came to 2.62 mL, the Mean survival time was found to be 41.0 days and the “% Increase in lifespan” value is on record as 182.7%. The compound further yielded a half-inhibitory concentration (IC50) in series [3] of 1.9 µM. In series [4], this compound yielded an IC50 of over 50 µM. For the same compound, the IC50 at 48 h in series [2] worked out at 36.2 µM.
For the compound `O=c1oc2ccccc2cc1-c1csc(NN=Cc2cc([N+](=O)[O-])ccc2Cl)n1` [5h, 3-(2-(2-(2-Chloro-5-nitrobenzylidene)hydrazino)thiazol-4-yl)-2H-chromen-2-one], in series [1], the Hb was 11.97 g/dL, the “RBCs Count” value is recorded as 4.92 10^6/mm^3, the “WBCs Count” value is given as 9.25 10^3/mm^3 and the “Viable tumor cell count/100 μL” value is recorded as 32.57x10^6 /100 μL. In series [1], the Tumor volume is recorded as 3.12 mL, the Mean survival time was determined as 39.3 days and the “% Increase in lifespan” value is 171.0%. In addition, the half-maximal inhibitory concentration (IC50) in series [3] amounted to 1.42 µM. This compound also registered an IC50 in series [4] of 1.96 µM. Besides, the IC50 at 48 h in series [2] is 19.8 µM.
With `O=c1oc2ccccc2cc1-c1csc(NN=Cc2ccc[nH]2)n1` [5m, 3-(2-(2-((1H-Pyrrol-2-yl)methylidene)hydrazino)thiazol-4-yl)-2H-chromen-2-one], in series [1], the Hb amounted to 11.43 g/dL, the “RBCs Count” value was 4.39 10^6/mm^3, the “WBCs Count” value is reported as 9.61 10^3/mm^3 and the “Viable tumor cell count/100 μL” value was 40.52x10^6 /100 μL. For the same compound, in series [1], the Tumor volume is listed as 3.85 mL, the Mean survival time was determined as 37.0 days and the “% Increase in lifespan” value turned out to be 155.2%. Further, the half-inhibitory concentration (IC50) in series [3] turned out to be 6.25 µM. Also, the half-maximal inhibitory concentration (IC50) in series [4] worked out at 12.5 µM. Further, the IC50 at 48 h in series [2] stood at 29.5 µM.
The compound `O=c1oc2ccccc2cc1-c1csc(NN=Cc2ccc3ccccc3c2[N+](=O)[O-])n1` [5p, 3-(2-(2-((1-Nitronaphthalen-2-yl)methylidene)hydrazino)thiazol-4-yl)-2H-chromen-2-one] displayed a melting point of 211 to 213 °C. This compound came in with a 50% inhibitory concentration (IC50) in series [3] of over 50 µM. The same compound showed an IC50 in series [4] of over 50 µM.
With `O=c1ccc2cc(C=NNc3nc(-c4cc5ccccc5oc4=O)cs3)ccc2o1` [5q, 6-((2-(4-(2-Oxo-2H-chromen-3-yl)thiazol-2-yl)hydrazono)methyl)-2H-chromen-2-one], the melting point is 181 to 183 °C. The IC50 in series [3] was over 50 µM. In addition, the IC50 in series [4] was over 50 µM.
Take `O=c1oc2ccccc2cc1-c1csc(NN=Cc2c3ccccc3c(Cl)c3ccccc23)n1` [5r, 3-(2-(2-((10-Chloroanthracen-9-yl)-methylidene)hydrazino)thiazol-4-yl)-2H-chromen-2-one]: in series [1], the Hb was 13.10 g/dL, the “RBCs Count” value was 5.55 10^6/mm^3, the “WBCs Count” value is recorded as 7.45 10^3/mm^3 and the “Viable tumor cell count/100 μL” value was 21.94x10^6 /100 μL. Also, in series [1], the Tumor volume is on record as 2.11 mL, the Mean survival time worked out at 45.5 days and the “% Increase in lifespan” value is on record as 213.8%. The compound further registered a half-inhibitory concentration (IC50) in series [3] of 1.29 µM. The compound also yielded a half-inhibitory concentration (IC50) in series [4] of 1.66 µM. The half-inhibitory concentration (IC50) at 48 h in series [2] came to 24.3 µM.
For the compound `O=c1oc2ccccc2cc1-c1csc(NN=Cc2cc3ccccc3c3ccccc23)n1` [5s, 3-(2-(2-(Phenanthren-9-ylmethylidene)-hydrazino)thiazol-4-yl)-2H-chromen-2-one], the melting point was 245 to 247 °C. Further, in series [3], the IC50 was over 50 µM. In series [4], this compound showed an IC50 of over 50 µM.
The compound `O=c1oc2ccccc2cc1-c1csc(NN=Cc2cc3ccc4cccc5ccc(c2)c3c45)n1` [5t, 3-(2-(2-(Pyren-2-ylmethylidene)hydrazino)thiazol-4-yl)-2H-chromen-2-one] came in with a melting point of 237 to 239 °C. The same compound yielded a concentration for half-maximal inhibition (IC50) in series [3] of over 50 µM. For the same compound, the half-maximal inhibitory concentration (IC50) in series [4] was over 50 µM.
